Source: article PMC12463105, “NSP7 Molecular Degrader Attenuates Coronaviral Infection Through the β‐TrCP1/FBXO5 Axis” (Advanced Science, 2025)

Columns and labels:
[1] = tested on: T1, HCoV-OC43; assay: microbe, parasite or virus in culture; parameters: HCoV-OC43 infection assay, reduction of viral infection; settings: Betacoronavirus 1, OC43, read-out: OC43
T1 construct: ATCC VR-1558

[2] = tested on: SARS-CoV-2 NSP7-HiBiT; settings: read-out: NSP7- HiBiT; reduction of NSP7-HiBiT signal; degrader

SMILES | IC50 [1] | IC50 [2]
CCSc1nsc(NC(=O)Nc2ccccc2Cl)n1 [BC24843, 5-[3-(o-chlorophenyl)ureido]-3-(ethylthio)-1,2,4-thiadiazole] | 16.2 µM | 26.2 µM
CCSc1nsc(NC(=O)N[C@@H](C)C(=O)OC)n1 [BC24889, methyl (S)-2-{3-[3-(ethylthio)-1,2,4-thiadiazol-5-yl]ureido}propionate] | > 100 µM | > 100 µM
CCOC(=O)CNC(=O)Nc1nc(SCC)ns1 [BC24868, ethyl {3-[3-(ethylthio)-1,2,4-thiadiazol-5-yl]ureido}acetate] | > 100 µM | > 100 µM
CCSc1nsc(NC(=O)Nc2cccc(Cl)c2)n1 [BC24842, 5-[3-(m-chlorophenyl)ureido]-3-(ethylthio)-1,2,4-thiadiazole] | 1.56 µM | 2.15 µM
CCSc1nsc(NC(=O)Nc2ccc(Cl)c(C(F)(F)F)c2)n1 [BC24852, 5-{3-[4-chloro-3-(trifluoromethyl)phenyl]ureido}-3-(ethylthio)-1,2,4-thiadiazole] | 0.907 µM | 2.76 µM
CCOC(=O)Cc1ccc(NC(=O)Nc2nc(SCC)ns2)cc1 [BC24865, ethyl (p-{3-[3-(ethylthio)-1,2,4-thiadiazol-5-yl]ureido}phenyl)acetate] | 10.7 µM | 27.8 µM
CCSc1nsc(NC(=O)Nc2ccc(C(F)(F)F)cc2)n1 [BC24912, 3-(ethylthio)-5-{3-[p-(trifluoromethyl)phenyl]ureido}-1,2,4-thiadiazole] | 0.672 µM | 1.76 µM
CCSc1nsc(NC(=O)Nc2ccc(OC)cc2)n1 [BC24857, 3-(ethylthio)-5-[3-(p-methoxyphenyl)ureido]-1,2,4-thiadiazole] | 88.8 µM | > 100 µM
CCSc1nsc(NC(=O)Nc2cc(OC)ccc2OC)n1 [BC24853, 5-[3-(2,5-dimethoxyphenyl)ureido]-3-(ethylthio)-1,2,4-thiadiazole] | 9.87 µM | > 100 µM
CCSc1nsc(NC(=O)NCCc2ccccc2)n1 [BC24881, 3-(ethylthio)-5-(3-phenethylureido)-1,2,4-thiadiazole] | 31.9 µM | 30 µM
CCSc1nsc(NC(=O)Nc2cc(F)ccc2F)n1 [BC24876, 5-[3-(2,5-difluorophenyl)ureido]-3-(ethylthio)-1,2,4-thiadiazole] | 5.5 µM | 19.4 µM
CCSc1nsc(NC(=O)Nc2ccc(F)cc2)n1 [BC24870, 3-(ethylthio)-5-[3-(p-fluorophenyl)ureido]-1,2,4-thiadiazole] | 10.1 µM | 17 µM
CCOc1ccc(NC(=O)Nc2nc(SCC)ns2)cc1 [BC24859, 5-[3-(p-ethoxyphenyl)ureido]-3-(ethylthio)-1,2,4-thiadiazole] | 52.1 µM | > 100 µM
CCOCCCNC(=O)Nc1nc(SCC)ns1 [BC24875, 5-[3-(3-ethoxypropyl)ureido]-3-(ethylthio)-1,2,4-thiadiazole] | > 100 µM | > 100 µM
CCSc1nsc(NC(=O)NCc2cccc(F)c2)n1 [BC24904, 3-(ethylthio)-5-{3-[(m-fluorophenyl)methyl]ureido}-1,2,4-thiadiazole] | > 100 µM | > 100 µM
CCSc1nsc(NC(=O)NCCC(C)C)n1 [BC24893, 3-(ethylthio)-5-(3-isopentylureido)-1,2,4-thiadiazole] | 13.7 µM | 18.5 µM
CCSc1nsc(NC(=O)Nc2cccc(Br)c2)n1 [BC24860, 5-[3-(m-bromophenyl)ureido]-3-(ethylthio)-1,2,4-thiadiazole] | 1.18 µM | 1.18 µM
CCSc1nsc(NC(=O)Nc2ccccc2C(F)(F)F)n1 [BC24866, 3-(ethylthio)-5-{3-[o-(trifluoromethyl)phenyl]ureido}-1,2,4-thiadiazole] | 12.4 µM | 18.5 µM
CCSc1nsc(NC(=O)NCCCOC)n1 [BC24869, 3-(ethylthio)-5-[3-(3-methoxypropyl)ureido]-1,2,4-thiadiazole] | 56.7 µM | > 100 µM
CCSc1nsc(NC(=O)Nc2ccc(F)c(Cl)c2)n1 [BC24856, 5-[3-(3-chloro-4-fluorophenyl)ureido]-3-(ethylthio)-1,2,4-thiadiazole] | 1.41 µM | 11.8 µM
CCSc1nsc(NC(=O)Nc2cc(C)ccc2C)n1 [BC24849, 3-(ethylthio)-5-[3-(2,5-xylyl)ureido]-1,2,4-thiadiazole] | 5.35 µM | 12.8 µM
CCSc1nsc(NC(=O)Nc2cccc(OC)c2)n1 [BC24841, 3-(ethylthio)-5-[3-(m-methoxyphenyl)ureido]-1,2,4-thiadiazole] | 5.5 µM | 12.3 µM
CCSc1nsc(NC(=O)NCc2ccco2)n1 [BC24885, 3-(ethylthio)-5-(3-furfurylureido)-1,2,4-thiadiazole] | > 100 µM | > 100 µM
CCSc1nsc(NC(=O)Nc2ccc3c(c2)OCCO3)n1 [BC24880, 5-[3-(2,3-dihydro-1,4-benzodioxin-6-yl)ureido]-3-(ethylthio)-1,2,4-thiadiazole] | 21.2 µM | 33.1 µM

SMILES | IC50 [1] | IC50 [2]
CCSc1nsc(NC(=O)NC(C)(C)C)n1 [BC24900, 5-(3-tert-butylureido)-3-(ethylthio)-1,2,4-thiadiazole] | > 100 µM | > 100 µM
CCSc1nsc(NC(=O)Nc2ccc(F)cc2F)n1 [BC24884, 5-[3-(2,4-difluorophenyl)ureido]-3-(ethylthio)-1,2,4-thiadiazole] | 16.9 µM | 27.6 µM
CCSc1nsc(NC(=O)Nc2ccccc2OC)n1 [BC24840, 3-(ethylthio)-5-[3-(o-methoxyphenyl)ureido]-1,2,4-thiadiazole] | 11.5 µM | > 100 µM
CCSc1nsc(NC(=O)Nc2cccc(C)c2C)n1 [BC24847, 3-(ethylthio)-5-[3-(2,3-xylyl)ureido]-1,2,4-thiadiazole] | 9.14 µM | 65.8 µM
CCSc1nsc(NC(=O)Nc2ccccc2[N+](=O)[O-])n1 [BC24846, 3-(ethylthio)-5-[3-(o-nitrophenyl)ureido]-1,2,4-thiadiazole] | 11.4 µM | 24.3 µM
CCSc1nsc(NC(=O)Nc2ccc3c(c2)CCC3)n1 [BC24915, 3-(ethylthio)-5-[3-(5-indanyl)ureido]-1,2,4-thiadiazole] | 17.4 µM | 34 µM
CCSc1nsc(NC(=O)Nc2cc(F)c(F)c(F)c2)n1 [BC24910, 3-(ethylthio)-5-[3-(3,4,5-trifluorophenyl)ureido]-1,2,4-thiadiazole] | 0.42 µM | 2.23 µM
CCOC(=O)[C@H](C)NC(=O)Nc1nc(SCC)ns1 [BC24902, ethyl (S)-2-{3-[3-(ethylthio)-1,2,4-thiadiazol-5-yl]ureido}propionate] | > 100 µM | > 100 µM
CCSc1nsc(NC(=O)NC[C@H]2CCCO2)n1 [BC24887, 3-(ethylthio)-5-(3-{[(R)-perhydro-2-furyl]methyl}ureido)-1,2,4-thiadiazole] | > 100 µM | > 100 µM
CCSc1nsc(NC(=O)NC2CCCCC2)n1 [BC24894, 5-(3-cyclohexylureido)-3-(ethylthio)-1,2,4-thiadiazole] | 17.5 µM | 23.7 µM
CCSc1nsc(NC(=O)Nc2cccc(F)c2)n1 [BC24895, 3-(ethylthio)-5-[3-(m-fluorophenyl)ureido]-1,2,4-thiadiazole] | 2.53 µM | 8.87 µM
CCSc1nsc(NC(=O)Nc2ccc(OC)cc2C)n1 [BC24916, 3-(ethylthio)-5-[3-(4-methoxy-2-tolyl)ureido]-1,2,4-thiadiazole] | 17.2 µM | > 100 µM
CCSc1nsc(NC(=O)NCc2ccc(C)cc2)n1 [BC24879, 3-(ethylthio)-5-{3-[(p-tolyl)methyl]ureido}-1,2,4-thiadiazole] | 13.3 µM | 27.6 µM
CCOc1ccccc1NC(=O)Nc1nc(SCC)ns1 [BC24858, 5-[3-(o-ethoxyphenyl)ureido]-3-(ethylthio)-1,2,4-thiadiazole] | 24.3 µM | > 100 µM
CCSc1nsc(NC(=O)Nc2cccc(F)c2C)n1 [BC24907, 3-(ethylthio)-5-[3-(3-fluoro-2-tolyl)ureido]-1,2,4-thiadiazole] | 3.36 µM | 9.85 µM
CCSc1nsc(NC(=O)NCC(C)C)n1 [BC24896, 3-(ethylthio)-5-(3-isobutylureido)-1,2,4-thiadiazole] | 29.9 µM | 29.3 µM
CCSc1nsc(NC(=O)Nc2ccccc2C)n1 [BC24855, 3-(ethylthio)-5-[3-(o-tolyl)ureido]-1,2,4-thiadiazole] | 8.23 µM | 35.2 µM
CCOC(=O)CCNC(=O)Nc1nc(SCC)ns1 [BC24897, ethyl 3-{3-[3-(ethylthio)-1,2,4-thiadiazol-5-yl]ureido}propionate] | > 100 µM | > 100 µM
CCSc1nsc(NC(=O)Nc2ccccc2CC)n1 [BC24864, 5-[3-(o-ethylphenyl)ureido]-3-(ethylthio)-1,2,4-thiadiazole] | 63.8 µM | 47.4 µM
CCSc1nsc(NC(=O)NCc2ccc(F)cc2)n1 [BC24886, 3-(ethylthio)-5-{3-[(p-fluorophenyl)methyl]ureido}-1,2,4-thiadiazole] | > 100 µM | > 100 µM
CCSc1nsc(NC(=O)Nc2cc(F)cc(F)c2)n1 [BC24850, 5-[3-(3,5-difluorophenyl)ureido]-3-(ethylthio)-1,2,4-thiadiazole] | 1.22 µM | 2.96 µM
CCSc1nsc(NC(=O)NCc2ccc(OC)cc2)n1 [BC24906, 3-(ethylthio)-5-{3-[(p-methoxyphenyl)methyl]ureido}-1,2,4-thiadiazole] | > 100 µM | > 100 µM
CCSc1nsc(NC(=O)Nc2cccc(C)c2)n1 [BC24863, 3-(ethylthio)-5-[3-(m-tolyl)ureido]-1,2,4-thiadiazole] | 2.03 µM | 5.09 µM
CCSc1nsc(NC(=O)Nc2ccc(C)cc2C)n1 [BC24867, 3-(ethylthio)-5-[3-(2,4-xylyl)ureido]-1,2,4-thiadiazole] | 13 µM | > 100 µM
